Several values for one entry are separate records, joined by “and”; a condition that tells them apart may be missing. Identical values can stand only once.
Target: T1, rat GPR14 (U-II receptor) (Rattus norvegicus, UniProt P49684)
T1 construct: expressed in transfected cells
T1 sequence (P49684 1-386): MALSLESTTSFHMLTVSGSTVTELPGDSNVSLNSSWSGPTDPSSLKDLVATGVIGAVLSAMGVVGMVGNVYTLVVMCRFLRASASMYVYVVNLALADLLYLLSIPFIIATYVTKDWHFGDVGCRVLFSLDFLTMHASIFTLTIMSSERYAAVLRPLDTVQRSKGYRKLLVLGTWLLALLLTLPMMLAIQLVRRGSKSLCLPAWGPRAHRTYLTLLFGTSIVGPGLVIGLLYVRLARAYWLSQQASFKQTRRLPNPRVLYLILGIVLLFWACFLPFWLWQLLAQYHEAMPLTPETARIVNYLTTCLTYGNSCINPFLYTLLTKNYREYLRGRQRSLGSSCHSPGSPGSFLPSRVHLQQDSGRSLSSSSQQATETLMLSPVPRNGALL
Assay: Rat UII Calcium Mobilization FLIPR Assay
Format: cell-based
Conditions: for inhibition at 10 µM / inhibition at 50 µM: CHO, 5 min, agonist-induced Ca2+ mobilization (FLIPR), CHO cells with rat UII receptor; for inhibition at 10 µM: 10 μM compound, read-out: % I @ 10; for inhibition at 50 µM: 50 μM compound, read-out: % I @ 50; for IC50: Inhibition of Acetyl-cyclic[Cys-Phe-Trp-Lys-(2-Nal)-Cys]-NH2 induced Ca2+ mobilization (FLIPR) in CHO cells transfected with rat UII receptor, read-out: IC50
From the text: To derive these cells, the complete coding sequence of rat U-II (Genbank Accession No. U32673) was amplified by nested PCR from rat heart marathon-Ready cDNA. […] The PCR products were cloned into pcDNA3 (Invitrogen) digested with EcoR I and Xba I. Clones containing rat U-II receptor were verified by complete sequencing of the U-II receptor insert to ensure a lack of PCR-introduced errors. The constructed vector was transfected into CHO cells by using lipofectamine (GIBCO BRL). CHO cells with high expression of rat U-II receptor were selected and established as stable cell lines by using G418. CHO cells were seeded at 25,000 cells per well into 96-well, black-wall, clear-bottom microtiter plates 24 h before assay. Cells in culture media (DMEM/F12 containing 15 mM HEPES, L-glutamine, pyridoxine hydrochloride; 10% fetal bovine serum; 1 mg/mL G418 sulfate; antibiotic-antimycotic; pH 7.4) were loaded with proprietary dye, from the FLIPR Calcium Assay Kit (Molecular Devices), prepared in assay buffer (Hanks Balanced Salts Solution, 20 mM HEPES, 0.1% BSA, 2.5 mM probenecid, pH 7.4), and incubated for 1 h at 37° C. Calcium mobilization determinations were performed at room temperature (23° C.).

inhibition at 10 µM | inhibition at 50 µM | IC50 | Compound
100% | 106% | 0.21 µM | COc1ccc(CN2C(=O)c3c(Cl)ccc(N4CCN([C@H](C)c5ccccc5)CC4)c3C2=O)cc1OC [Cpd 10, 4-chloro-2-(3,4-dimethoxy-benzyl)-7-[4-(1R)-(1-phenyl-ethyl)-piperazin-1-yl]-isoindole-1,3-dione]
100% | 101% | 0.34 µM | COc1cc2c(cc1OC)C(N1C(=O)c3cccc(N4CCN(Cc5ccccc5)CC4)c3C1=O)CC2 (stereo not drawn) [Cpd 11, 4-(4-benzyl-piperazin-1-yl)-2-(5,6-dimethoxy-indan-1-yl)-isoindole-1,3-dione]
98% | 101% | 0.49 µM | COc1ccc(CN2C(=O)c3cccc(N4CCN([C@@H](C)c5ccccc5)CC4)c3C2=O)cc1OC [Cpd 14, 2-(3,4-dimethoxy-benzyl)-4-[4-(1S)-(1-phenyl-ethyl)-piperazin-1-yl]-isoindole-1,3-dione]
91% | 97% | 0.86 µM and 1.1 µM | COc1ccc(CN2C(=O)c3cccc(N4CCN(Cc5c(F)cccc5F)CC4)c3C2=O)cc1OC [Cpd 16, 4-[4-(2,6-difluoro-benzyl)-piperazin-1-yl]-2-(3,4-dimethoxy-benzyl)-isoindole-1,3-dione]
78% | 15% | 1.5 µM | COc1ccc(CN2C(=O)c3cccc(N4CCN(C5CCc6ccccc65)CC4)c3C2=O)cc1OC (stereo not drawn) [Cpd 20, 2-(3,4-dimethoxy-benzyl)-4-(4-indan-1-yl-piperazin-1-yl)-isoindole-1,3-dione]
90% | 98% | 1.7 µM | CCOc1cc(CN2C(=O)c3cccc(N4CCN([C@H](C)c5ccccc5)CC4)c3C2=O)ccc1OC [Cpd 21, 2-(3-ethoxy-4-methoxy-benzyl)-4-[4-(1R)-(1-phenyl-ethyl)-piperazin-1-yl]-isoindole-1,3-dione]
100% | 100% | 1.9 µM | COc1ccc(CN2C(=O)c3cccc(N4CCN(CCc5ccccc5)CC4)c3C2=O)cc1OC [Cpd 22, 2-(3,4-dimethoxy-benzyl)-4-(4-phenethyl-piperazin-1-yl)-isoindole-1,3-dione]
62% | 101% | 1.9 µM | Cc1nn(C)c(C)c1CN1C(=O)c2cccc(N3CCN(Cc4ccccc4)CC3)c2C1=O [Cpd 23, 4-(4-benzyl-piperazin-1-yl)-2-(1,3,5-trimethyl-1H-pyrazol-4-ylmethyl)-isoindole-1,3-dione]
96% | 100% | 2.1 µM | COc1ccc(CN2C(=O)c3cccc(N4CCN(Cc5ccc(F)cc5F)CC4)c3C2=O)cc1OC [Cpd 24, 4-[4-(2,4-difluoro-benzyl)-piperazin-1-yl]-2-(3,4-dimethoxy-benzyl)-isoindole-1,3-dione]
78% | 100% | 3.8 µM | COc1ccc(CN2C(=O)c3cccc(N4CCN(C(c5ccccc5)C5CC5)CC4)c3C2=O)cc1OC (stereo not drawn) [Cpd 27, 4-[4-(cyclopropyl-phenyl-methyl)-piperazin-1-yl]-2-(3,4-dimethoxy-benzyl)-isoindole-1,3-dione]
77% | 95% | 4.4 µM | COc1ccc(CN2C(=O)c3cccc(N4CCN(Cc5cc(F)ccc5F)CC4)c3C2=O)cc1OC [Cpd 29, 4-[4-(2,5-difluoro-benzyl)-piperazin-1-yl]-2-(3,4-dimethoxy-benzyl)-isoindole-1,3-dione]
80% | 99% | 4.4 µM | COc1ccc([C@H](CC(=O)O)N2C(=O)c3cccc(N4CCN([C@H](C)c5ccccc5)CC4)c3C2=O)cc1OC [Cpd 30, (S)-3-(3,4-dimethoxy-phenyl)-3-{1,3-dioxo-4-[4-(1R)-(1-phenyl-ethyl)-piperazin-1-yl]-1,3-dihydro-isoindol-2-yl}-propionic acid]
65% | 89% | 4.5 µM | COc1ccc(CN2C(=O)c3cccc(N4CCN(Cc5ccccc5Cl)CC4)c3C2=O)cc1OC [Cpd 31, 4-[4-(2-chloro-benzyl)-piperazin-1-yl]-2-(3,4-dimethoxy-benzyl)-isoindole-1,3-dione]
60% | 97% | 5 µM | COc1ccc(CN2C(=O)c3cccc(N4CCN(Cc5ccccc5C)CC4)c3C2=O)cc1OC [Cpd 33, 2-(3,4-dimethoxy-benzyl)-4-[4-(2-methyl-benzyl)-piperazin-1-yl]-isoindole-1,3-dione]
64% | 94% | 5.9 µM | COc1cc(CN2C(=O)c3cccc(N4CCN(Cc5ccccc5)CC4)c3C2=O)cc(OC)c1OC [Cpd 34, 4-(4-benzyl-piperazin-1-yl)-2-(3,4,5-trimethoxy-benzyl)-isoindole-1,3-dione]
55% | 65% | 6.3 µM | C#CC(c1ccccc1)N1CCN(c2cccc3c2C(=O)N(Cc2ccc(OC)c(OC)c2)C3=O)CC1 (stereo not drawn) [Cpd 35, 2-(3,4-dimethoxy-benzyl)-4-[4-(1-phenyl-prop-2-ynyl)-piperazin-1-yl]-isoindole-1,3-dione]
63% | 82% | 6.5 µM | COc1ccc(CN2C(=O)c3cccc(N4CCN(Cc5cccc(C)c5)CC4)c3C2=O)cc1OC [Cpd 36, 2-(3,4-dimethoxy-benzyl)-4-[4-(3-methyl-benzyl)-piperazin-1-yl]-isoindole-1,3-dione]
62% | 71% | 6.9 µM | COc1ccc(CN2C(=O)c3cccc(N[C@@H]4CCCC[C@H]4NCc4ccccc4)c3C2=O)cc1OC [Cpd 37, 4-(1R,2R)-(2-benzylamino-cyclohexylamino)-2-(3,4-dimethoxy-benzyl)-isoindole-1,3-dione]
56% | 94% | 7.6 µM | COc1ccc(CN2C(=O)c3cccc(N4CCN(Cc5ccccc5C#N)CC4)c3C2=O)cc1OC [Cpd 38, 2-{4-[2-(3,4-dimethoxy-benzyl)-1,3-dioxo-2,3-dihydro-1H-isoindol-4-yl]-piperazin-1-ylmethyl}-benzonitrile]
47% | 87% | 9 µM | COc1ccc(CN2C(=O)c3cccc(N4CCN(Cc5ccc(C)cc5)CC4)c3C2=O)cc1OC [Cpd 40, 2-(3,4-dimethoxy-benzyl)-4-[4-(4-methyl-benzyl)-piperazin-1-yl]-isoindole-1,3-dione]
57% | 69% | 9.8 µM | CCCOc1ccc(CN2C(=O)c3cccc(N4CCN([C@H](C)c5ccccc5)CC4)c3C2=O)cc1OC [Cpd 41, 2-(3-methoxy-4-propoxy-benzyl)-4-[4-(1R)-(1-phenyl-ethyl)-piperazin-1-yl]-isoindole-1,3-dione]

Compound | inhibition at 10 µM | inhibition at 50 µM | IC50
COc1ccc(CCN2C(=O)c3cccc(N4CC5CCC(C4)N5Cc4ccccc4)c3C2=O)cc1OC [Cpd 25, 4-(8-benzyl-3,8-diaza-bicyclo[3.2.1]oct-3-yl)-2-[2-(3,4-dimethoxy-phenyl)-ethyl]-isoindole-1,3-dione] | 90% | 100% | 2.8 µM
COc1cc(CN2C(=O)c3cccc(N4CC5CCC(C4)N5Cc4ccccc4)c3C2=O)cc(OC)c1OC [Cpd 26, 4-(8-benzyl-3,8-diaza-bicyclo[3.2.1]oct-3-yl)-2-(3,4,5-trimethoxy-benzyl)-isoindole-1,3-dione] | 81% | 94% | 3.4 µM
COc1ccc(CN2C(=O)c3cccc(N4CC5CCC(C4)N5C(C)c4ccccc4)c3C2=O)cc1OC (stereo not drawn) [Cpd 32, 2-(3,4-dimethoxy-benzyl)-4-[8-(1-phenyl-ethyl)-3,8-diaza-bicyclo[3.2.1]oct-3-yl]-isoindole-1,3-dione] | 73% | 93% | 4.9 µM
O=C1c2cccc(N3CC4CCC(C3)N4Cc3ccccc3)c2C(=O)N1Cc1ccncc1 [Cpd 39, 4-(8-benzyl-3,8-diaza-bicyclo[3.2.1]oct-3-yl)-2-pyridin-4-ylmethyl-isoindole-1,3-dione] | 47% | 101% | 8.9 µM
